Laboratory results as given in ChEMBL document CHEMBL3621055, “Mechanism of forming trimer, self-assembling nano-particle and inhibiting tumor growth of small molecule CIPPCT” (Medchemcomm, 2014).
Calls of active or inactive are those of the source. No cut-off for these calls is given here.

How the values were obtained:
[1] = system: CCRF S-180; assay: Antitumor activity against mouse S180 cells allografted in ICR mouse assessed as tumor growth inhibition at 2 umol/kg, ip qd for 7 days measured 24 hrs after last dose; type: functional, organism-based
[2] = system: HL-60; assay: Cytotoxicity against human HL60 cells after 48 hrs by MTT assay; type: functional, cell-based; settings: HL-60, 48 h
[3] = system: HepG2; assay: Cytotoxicity against human HepG2 cells after 48 hrs by MTT assay; type: functional, cell-based; settings: HepG2, 48 h
[4] = system: HeLa; assay: Cytotoxicity against human HeLa cells after 48 hrs by MTT assay; type: functional, cell-based
[5] = system: CCRF S-180; assay: Antitumor activity against mouse S180 cells allografted in ICR mouse assessed as tumor growth inhibition at 4 umol/kg, po qd for 7 days measured 24 hrs after last dose; type: functional, organism-based
[6] = system: CCRF S-180; assay: Antitumor activity against mouse S180 cells allografted in ICR mouse assessed as tumor growth inhibition administered as po qd for 7 days measured 24 hrs after last dose; type: functional
[7] = system: HepG2; assay: Drug uptake in human HepG2 cells at 10^-10 M after 15 to 240 mins by fluorescence assay; type: ADME, cell-based; settings: hepg2, 0.0001 µM
[8] = system: SW480; assay: Cytotoxicity against human SW480 cells after 48 hrs by MTT assay; type: functional, cell-based; settings: SW480, 48 h
[9] = system: CCRF S-180; assay: Antitumor activity against mouse S180 cells allografted in ICR mouse assessed as decrease of uPA levels in serum administered as po qd for 7 days measured 24 hrs after last dose; type: functional, organism-based
[10] = system: HT-29; assay: Cytotoxicity against human HT-29 cells after 48 hrs by MTT assay; type: functional, cell-based; settings: HT-29, 48 h

Row | Compound | inhibition [1] | IC50 [2] [µM] | IC50 [3] [µM] | IC50 [4] [µM] | inhibition [5] | MED [6] [µmol/kg] | inhibition [6] | Drug uptake [7] | IC50 [8] [µM] | Activity [9] | IC50 [10] [µM]
1 | COc1cccc2c1C(=O)c1c(O)c3c(c(O)c1C2=O)C[C@@](O)(C(=O)CO)C[C@@H]3O[C@H]1C[C@H](N)[C@H](O)[C@H](C)O1 | Active |  |  |  |  |  |  |  |  |  | 
2 | C[C@H](O)[C@H](NC(=O)[C@H](Cc1c[nH]c2ccccc12)NCC[C@H]1c2[nH]c3ccccc3c2C[C@H]2C(=O)N3CCC[C@H]3C(=O)N21)C(=O)OCc1ccccc1 |  | > 10 | > 60 | > 100 | Active | 0.16 | Dose-dependent effect | Active | > 100 | Dose-dependent effect | > 20
